For data set [1], the system named is freely moving rats. Also noted: method as in PMID 25181033, PMID 26901596. Particulars: cited from earlier work.
On the set-up of data set [2]: method as in PMID 26116126. Particulars: direct radiolabeling; cited from earlier work.
Data set [3] relates to healthy young volunteers. Also noted: method as in PMID 1375552. Particulars: cited from earlier work.
For data set [4], the system named is cynomolgus monkeys. In words: qEEG power spectra after treatment with drug alone (radio-telemetry EEG). Type of data set: in vivo, cynomolgus monkeys (Macaca fascicularis). Here is the method: (§1) Implant surgery was carried out at Hamri Company Limited (Ibaraki, Japan). Briefly, under isoflurane anesthesia (1–5%, Pfizer Japan Inc., Tokyo, Japan), male cynomolgus monkeys (3–5 years old, Hamri Co., Ltd., Ibaraki, Japan) were surgically implanted with radio-telemetry transmitters (TL10M3-D70-EEE, Data Sciences International Inc., St. Paul, MN). EEG leads were stereotaxically positioned in the parietal area and secured to the cranium with stainless-steel screws in contact with the dura. […] Bilateral electromyography (EMG) leads were implanted in the back cervical muscles. After surgery, each monkey was administered penicillin (100,000 units/animal, i.m., Meiji Seika Pharma Co., Ltd., Tokyo, Japan), buprenorphine (0.02 mg/kg, i.m., Otsuka Pharmaceutical Co., Ltd., Tokyo, Japan), and prednisolone (1 mg/kg, subcutaneously [s.c.], Kyoritsu Seiyaku Co., Ltd., Tokyo, Japan) daily for one week.
(§2) TAK-071, 4-fluoro-2-[(3S,4S)-4-hydroxytetrahydro-2H-pyran-3-yl]-5-methyl-6-[4-(1H-pyrazol-1-yl)benzyl]-2,3-dihydro-1H-isoindol-1-one, was synthesized by Takeda Pharmaceutical Company Limited (Kanagawa, Japan). Donepezil hydrochloride and xanomeline oxalate were purchased from Mega Fine Pharma (P) Limited (Mumbai, India) and Metina AB (Lund, Sweden), respectively. […] TAK-071 and donepezil hydrochloride were suspended in 0.5% (w/v) methylcellulose in distilled water and the volume of administration was 2 mL/kg orally (p.o.). […] The doses of compounds correspond to their salt forms. The administration was scheduled according to a 3×3 cross-over design.
(§3) After at least a 1-month recovery period in their home cages, the monkeys were habituated to the recording chamber (acrylic cage, 60 × 55 × 75 [cm^3 width × depth × height]) located in a soundproof, electrically shielded room. Cortical EEG, EMG, and EOG signals were recorded at a sampling rate of 500 Hz using Dataquest ART software (Data Sciences International, New Brighton, MN). The behavioral and postural changes of the animals were observed using a video camera continuously throughout the experiment. The recordings were performed between 9 a.m. and 4 p.m..
(§4) EEG data were analyzed off-line using SleepSign (KISSEI COMTEC Co., Ltd., Nagano, Japan). Digitized EEG signals were high-pass filtered with a 0.75-Hz filter. Spectral power densities for each frequency band were calculated by fast Fourier transform in consecutive 10-s epochs. Epochs containing abnormal EEG, defined by excessive amplitude (> 500 μV), were omitted from data analysis. For analysis of temporal changes in a specific spectral band (1–4 Hz for delta, 4–8 Hz for theta, 8–12 Hz for alpha, 12–30 Hz for beta, 30–80 Hz for gamma), the EEG power of each spectral band was calculated every 15 min. For each animal, the qEEG spectral analyses were performed from 30 to 240 min after treatment because oral and subcutaneous administration of drugs to monkeys can affect the qEEG power spectra. Data obtained in the post-drug period were normalized with those obtained in the baseline period and were calculated as the area under the curve (AUC) between 30 and 210 min after drug administration for quantitative analyses.

The test system of data set [5] is healthy subjects. The settings on record: healthy subjects after scopolamine treatment; cited from earlier work.
Data set [6] deals with monkeys. Also noted: method as in PMID 17657478, PMID 25491927. The settings on record: scopolamine 20–50 μg/kg; cited from earlier work.
Data set [7] relates to patients with AD. Set-up: method as in PMID 14626697. The settings on record: cited from earlier work.
For data set [8], the system named is monkeys. The settings on record: cited from earlier work.
Data set [9] has as its system cynomolgus monkeys. Put plainly: scopolamine-induced qEEG spectral changes (scopolamine challenge paradigm). Type of data set: in vivo, cynomolgus monkeys (Macaca fascicularis). As to the method:
as §1, §2, §3, §4

The test system of data set [10] is monkeys. Particulars: xanomeline 1 mg/kg subcutaneous; cited from earlier work.
On the set-up of data set [11]: method as in PMID 29563325. Particulars: cited from earlier work.
On the set-up of data set [12]: method as in PMID 30089885. The settings on record: rats, TAK-071 0.3 mg/kg; cited from earlier work.
Data set [13] concerns rats. Also noted: method as in PMID 30089885. The settings on record: TAK-071 0.3 mg/kg; cited from earlier work.
The test system of data set [14] is M1R. Also noted: method as in PMID 30089885. Particulars: previous study; cited from earlier work.
Where [15] appears, read: donepezil alone, 0.3 and 3 mg/kg p.o.
Where [16] appears, read: donepezil 3 mg/kg p.o. simultaneously with scopolamine 25 μg/kg s.c.
Setting [17] is: xanomeline 1 mg/kg s.c. simultaneously with scopolamine 25 μg/kg s.c., not statistically significant.
[18] abbreviates: TAK-071 3 mg/kg p.o. simultaneously with scopolamine 25 μg/kg s.c., P ≤ 0.05.

Molecules are shown by their SMILES. Where a name gives a salt, the structure may show the parent alone. Read-outs that look alike come from different tables or passages of the source.

As for `Nc1c2c(nc3ccccc13)CCCC2` [tacrine], in [1], the “delta power band after treatment with scopolamine” value (shortened to “delta power band after treatment”) is recorded as “decreased”.

Turning to `Cc1cc(F)c2[nH]c(=O)n(C3CCN(C4CCOCC4)CC3)c2c1` [GSK1034702], in data set [2], the “brain uptake by PET” value is “good brain uptake”.

For `COc1ccc2c3c1O[C@H]1C[C@@H](O)C=C[C@@]31CCN(C)C2` [galantamine], in [3], the theta power band result was “did not change”.

With `CN1[C@@H]2C[C@@H](OC(=O)[C@H](CO)c3ccccc3)C[C@H]1[C@@H]1O[C@@H]12` [scopolamine, Scopolamine hydrobromide], the “alpha, theta, and delta power bands, dose-dependency” value in data set [4] (scopolamine 25, 50, or 100 μg/kg s.c.) was “increased alpha, theta, and delta power bands in a dose-dependent manner”. Further, the “persistence of effects in all power bands after treatment” value in data set [4] (scopolamine 25-100 μg/kg s.c.) amounted to 240 min. In addition, in data set [5], the “alpha power band, resting state” value was “decrease” and the “delta power band, resting state” value was “increase”. The cognitive impairment result in data set [6] is listed as “moderately caused cognitive impairment”.

With `COc1cc2c(cc1OC)C(=O)C(CC1CCN(Cc3ccccc3)CC1)C2` (centres unmarked) [donepezil, Donepezil hydrochloride], in data set [7], the alpha activity entry is on record as “increased”, the beta activity result is listed as “increased” and the delta activity entry is “significantly decreased”. In data set [4] (donepezil alone, 0.3 mg/kg p.o., dose-dependency not observed), the “alpha power band of qEEG spectra” value is “increased”. Moreover, in [4] (setting [15]), the “delta power band of qEEG spectra” value is “did not affect” and the “theta power band of qEEG spectra” value was “did not affect”. Further, the scopolamine-induced cognitive deficits result in data set [8] (oral administration of 3 mg/kg donepezil) is “improved”. In addition, the scopolamine-induced cognitive deficits result in data set [8] (oral donepezil 1–3 mg/kg) was “significantly attenuated”. In addition, the “delta power band after treatment” value in data set [1] is reported as “decreased”. For the same molecule, in data set [9] (setting [16]), the “scopolamine-induced increase in alpha power band” value is “tended to be attenuated” and the “scopolamine-induced increase in theta power band” value is on record as “tended to be attenuated”. Further, the “scopolamine-induced increase in delta power band” value in data set [9] (donepezil 3 mg/kg p.o. simultaneously with scopolamine 25 μg/kg s.c., P ≤ 0.05 vs scopolamine) is listed as “significantly suppressed”.

Turning to `CCN(C)C(=O)Oc1cccc([C@H](C)N(C)C)c1` [rivastigmine], in data set [1], the “delta power band after treatment” value was “decreased”.

As for `CCCCCCOc1nsnc1C1=CCCN(C)C1` [xanomeline, xanomeline oxalate], the “antipsychotic-like activity and sedative effects” value in [10] is recorded as “exhibited antipsychotic-like activity without inducing sedative effects”. Besides, the scopolamine-induced cognitive deficits entry in data set [8] (intramuscular administration of 0.1 mg/kg xanomeline) is given as “improved”. In data set [9] (setting [17]), the “scopolamine-induced increase in alpha power band” value is “showed a trend to suppress”, the “scopolamine-induced increase in delta power band” value is recorded as “showed a trend to suppress” and the “scopolamine-induced increase in theta power band” value is listed as “showed a trend to suppress”.

`Cc1ccc(Cc2cc3c(=O)n([C@H]4CCCC[C@@H]4O)cnc3c3ccccc23)cn1` [MK-7622]: in [11], the alpha power band result is given as “reductions” and the theta power band result was “reductions”.

For the molecule `Cc1c(Cc2ccc(-n3cccn3)cc2)cc2c(c1F)CN([C@H]1COCC[C@@H]1O)C2=O` [TAK-071, 4-fluoro-2-[(3S,4S)-4-hydroxytetrahydro-2H-pyran-3-yl]-5-methyl-6-[4-(1H-pyrazol-1-yl)benzyl]-2,3-dihydro-1H-isoindol-1-one], the maximum plasma concentration in data set [12] is on record as 232 ng/mL. In data set [4] (TAK-071 alone, 1 mg/kg p.o., P ≤ 0.05 vs vehicle), the “theta power band of qEEG spectra” value was “significantly decreased”. Also, the “delta power band of qEEG spectra” value in [4] (TAK-071 alone, 0.3–3 mg/kg p.o.) was “did not change”. In addition, in [4] (TAK-071 alone, 1 and 3 mg/kg p.o., P ≤ 0.05 vs vehicle), the “alpha power band of qEEG spectra” value is “significantly decreased”. Moreover, the scopolamine-induced cognitive deficits entry in data set [13] is “significantly ameliorated”. In addition, the “selectivity as M1 PAM” value in data set [14] was “highly selective M1 PAM”. Further, the “scopolamine-induced increase in alpha power band” value in data set [9] (TAK-071 1 mg/kg p.o. simultaneously with scopolamine 25 μg/kg s.c., P ≤ 0.05) was “significantly reduced”. Moreover, in data set [9] (setting [18]), the “scopolamine-induced increase in alpha power band” value is on record as “significantly suppressed” and the “scopolamine-induced increase in theta power band” value was “significantly suppressed”. In addition, the “scopolamine-induced increase in delta power band” value in [9] (TAK-071 1 and 3 mg/kg p.o. simultaneously with scopolamine 25 μg/kg s.c., no significant effect) is recorded as “a decreasing trend was observed”.
